SMILES strings stand for the structures.

For the experiment, the target named is T1, Dihydrofolate reductase (Mus musculus) (UniProt P00375).
T1 sequence (whole entry): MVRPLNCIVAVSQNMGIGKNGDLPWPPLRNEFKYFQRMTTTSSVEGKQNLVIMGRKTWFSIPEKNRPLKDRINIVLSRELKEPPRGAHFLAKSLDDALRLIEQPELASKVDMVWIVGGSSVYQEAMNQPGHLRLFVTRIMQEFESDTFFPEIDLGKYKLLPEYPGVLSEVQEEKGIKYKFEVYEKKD
Briefly: Inhibition of dihydrofolate reductase from L1210 leukemia tumors.
As for `CC1(C)N=C(N)N=C(N)N1c1ccc(SCC(=O)Nc2ccc(S(=O)(=O)F)cc2)c(Cl)c1`, the Log 1/C stood at 7.42.

In turn, `CC1(C)N=C(N)N=C(N)N1c1ccc(OCCCNC(=O)c2ccc(S(=O)(=O)F)cc2)c(Cl)c1` came in with a Log 1/C of 7.34.

`CC1(C)N=C(N)N=C(N)N1c1cccc(CCc2ccc(S(=O)(=O)F)cc2)c1` registered a Log 1/C of 8.1.

For `CC1(C)N=C(N)N=C(N)N1c1ccc(OCc2ccc(S(=O)(=O)F)c(Cl)c2)c(Cl)c1`, the Log 1/C is 7.43.

In turn, `Cc1cc(S(=O)(=O)F)ccc1COc1ccc(N2C(N)=NC(N)=NC2(C)C)cc1Cl` yielded a Log 1/C of 7.38.

The molecule `CC1(C)N=C(N)N=C(N)N1c1ccc(CCCCc2ccc(Cl)c(S(=O)(=O)F)c2)c(Cl)c1` displayed a Log 1/C of 8.11.

Molecule `CC1(C)N=C(N)N=C(N)N1c1ccc(OCc2cccc(S(=O)(=O)F)c2Cl)c(Cl)c1` had a Log 1/C of 7.49.

Take `CC1(C)N=C(N)N=C(N)N1c1cccc(OCCOc2ccc(S(=O)(=O)F)cc2)c1`: the Log 1/C came out at 7.82.

`CC1(C)N=C(N)N=C(N)N1c1ccc(OCC(=O)Nc2cccc(S(=O)(=O)F)c2)c(Cl)c1` showed a Log 1/C of 7.72.

The molecule `CC1(C)N=C(N)N=C(N)N1c1cccc(OCCCCOc2ccc(S(=O)(=O)F)cc2)c1` registered a Log 1/C of 7.49.

The molecule `CC1(C)N=C(N)N=C(N)N1c1ccc(OCCCC(=O)Nc2ccc(S(=O)(=O)F)cc2)c(Cl)c1` registered a Log 1/C of 7.15.

Molecule `CN(C)C(=O)c1cccc(NC(=O)NCc2cccc(N3C(N)=NC(N)=NC3(C)C)c2)c1` came in with a Log 1/C of 7.77.

In the case of `CC1(C)N=C(N)N=C(N)N1c1ccc(CC(C(=O)Nc2cccc(S(=O)(=O)F)c2)c2ccccc2)cc1` (configuration not stated), the Log 1/C came to 6.89.

The molecule `CC1(C)N=C(N)N=C(N)N1c1ccc(CCCCc2ccc(Cl)cc2Cl)cc1` displayed a Log 1/C of 7.92.

`CC1(C)N=C(N)N=C(N)N1c1ccc(OCCCCCOc2ccc(S(=O)(=O)F)cc2)c(Cl)c1` showed a Log 1/C of 7.57.

The molecule `CC1(C)N=C(N)N=C(N)N1c1ccc(CNC(=O)Nc2ccc(S(=O)(=O)F)cc2)cc1` yielded a Log 1/C of 7.35.

On to `CC1(C)N=C(N)N=C(N)N1c1ccc(SCC(=O)Nc2ccc(S(=O)(=O)F)cc2)cc1`, for which the Log 1/C was determined as 7.52.

Molecule `COc1cccc(NC(=O)NCc2cccc(N3C(N)=NC(N)=NC3(C)C)c2)c1` had a Log 1/C of 8.02.

Take `CC1(C)N=C(N)N=C(N)N1c1ccc(SCC(=O)Nc2cccc(S(=O)(=O)F)c2)c(Cl)c1`: the Log 1/C amounted to 7.66.

With `CC1(C)N=C(N)N=C(N)N1c1ccc(OCc2ccc(S(=O)(=O)F)cc2Cl)c(Cl)c1`, the Log 1/C is 7.44.

Turning to `CC1(C)N=C(N)N=C(N)N1c1ccc(OCCCCNC(=O)c2ccc(S(=O)(=O)F)cc2)c(Cl)c1`, the Log 1/C worked out at 7.66.

Consider `CC1(C)N=C(N)N=C(N)N1c1ccc(CCC(=O)Nc2ccc(S(=O)(=O)F)cc2)c(Cl)c1`, for which the Log 1/C was 7.62.

For the molecule `CC1(C)N=C(N)N=C(N)N1c1ccc(OCCCCC(=O)Nc2ccc(S(=O)(=O)F)cc2)c(Cl)c1`, the Log 1/C amounted to 7.24.

The molecule `CC1(C)N=C(N)N=C(N)N1c1ccc(OCc2cc(S(=O)(=O)F)ccc2Cl)c(Cl)c1` displayed a Log 1/C of 7.38.

In the case of `CC1(C)N=C(N)N=C(N)N1c1ccc(OCCCCCCOc2ccc(S(=O)(=O)F)cc2)c(Cl)c1`, the Log 1/C came out at 7.46.

With `CC1(C)N=C(N)N=C(N)N1c1ccc(OCc2ccc(S(=O)(=O)F)cc2)c(Cl)c1`, the Log 1/C is 7.58.

In turn, `CC1(C)N=C(N)N=C(N)N1c1ccc(CCCCCCc2ccc(S(=O)(=O)F)cc2)cc1` displayed a Log 1/C of 7.12.

On to `CC1(C)N=C(N)N=C(N)N1c1ccc(CCc2ccccc2)cc1`, for which the Log 1/C was determined as 7.89.

The molecule `CC1(C)N=C(N)N=C(N)N1c1cccc(CCCCc2ccc(Cl)cc2Cl)c1` showed a Log 1/C of 8.03.

`CC1(C)N=C(N)N=C(N)N1c1ccc(OCC(=O)Nc2ccc(S(=O)(=O)F)cc2)c(Cl)c1` registered a Log 1/C of 7.43.

For `CC1(C)N=C(N)N=C(N)N1c1ccc(CCCCc2cc(Cl)ccc2S(=O)(=O)F)c(Cl)c1`, the Log 1/C came out at 7.06.

Turning to `CC1(C)N=C(N)N=C(N)N1c1ccc(CCc2ccc(S(=O)(=O)F)c(Cl)c2)c(Cl)c1`, the Log 1/C was found to be 7.85.

The record behind these values is ChEMBL document CHEMBL1125208, “Applications of neural networks in quantitative structure-activity relationships of dihydrofolate reductase inhibitors” (J Med Chem, 1991).
